Among the data in patent publication US20090306133A1, “New Acetyl Coenzyme A Carboxylase (ACC) Inhibitors And Uses In Treatments Of Obesity And Diabetes Mellitus - 087” (ASTRAZENECA AB, priority 2007, published 2009) are IC50 values, retold here.

Structures are written as SMILES. pIC50: −log10 of the molar value.

As usually defined, the pIC50 is the IC50 on a negative log10 scale, so that one unit is a factor of ten.

Test [1] concerns the target Human recombinant Acetyl-CoA Carboxylase 1 (ACC1) (Homo sapiens, UniProt Q13085). As to the kind of experiment: Assay Y: ACC1 inhibition, inorganic phosphate (Malachite Green). The test is classed as biochemical. As to conditions: Assay Y: room temperature, 3 hr, 15 min preincubation. The protocol:
(§1) Preincubation of 6 μL enzyme together with 0.3 μL compound for 15 min was done before the reaction was initiated by the addition of 4 μL substrate. […] After 3 hr the reaction was stopped by addition of 60 μL of water followed by 30 μL Malachite Green solution. The Malachite Green solution was prepared by mixing 16.4 mL ammonium molybdate solution (7.5%), 1.64 mL Tween (11%) with 82 mL Malachite Green/H2SO4-solution (0.7 g Malachite Green to 1000 mL of 10% (v/v) H2SO4). Plates were left for 10 min at room temperature before reading the absorbance at 670 nm. All compounds were tested in triplicate at 10 different concentrations. Control compound (0, 50 and 100% effect) was included on each plate. […] An IC50 value was derived by non-linear regression curve fitting using the following equation: […]))) where A is the non-specific binding, B is the total binding, C is the IC50 and D is the slope. Saturation binding Kd and Bmax were derived using the equation y=((B1 max*x)/(Kd+x)).

For test [2], the target named is Human recombinant Acetyl-CoA Carboxylase 2 (ACC2) (Homo sapiens, UniProt O00763). As to the kind of experiment: Assay Y: ACC2 inhibition, inorganic phosphate (Malachite Green). As to conditions: Assay Y: room temperature, 3 hr, 15 min preincubation. The test is classed as biochemical. The protocol:
as §1

Chain of Human recombinant Acetyl-CoA Carboxylase 2 (ACC2) (O00763 whole entry): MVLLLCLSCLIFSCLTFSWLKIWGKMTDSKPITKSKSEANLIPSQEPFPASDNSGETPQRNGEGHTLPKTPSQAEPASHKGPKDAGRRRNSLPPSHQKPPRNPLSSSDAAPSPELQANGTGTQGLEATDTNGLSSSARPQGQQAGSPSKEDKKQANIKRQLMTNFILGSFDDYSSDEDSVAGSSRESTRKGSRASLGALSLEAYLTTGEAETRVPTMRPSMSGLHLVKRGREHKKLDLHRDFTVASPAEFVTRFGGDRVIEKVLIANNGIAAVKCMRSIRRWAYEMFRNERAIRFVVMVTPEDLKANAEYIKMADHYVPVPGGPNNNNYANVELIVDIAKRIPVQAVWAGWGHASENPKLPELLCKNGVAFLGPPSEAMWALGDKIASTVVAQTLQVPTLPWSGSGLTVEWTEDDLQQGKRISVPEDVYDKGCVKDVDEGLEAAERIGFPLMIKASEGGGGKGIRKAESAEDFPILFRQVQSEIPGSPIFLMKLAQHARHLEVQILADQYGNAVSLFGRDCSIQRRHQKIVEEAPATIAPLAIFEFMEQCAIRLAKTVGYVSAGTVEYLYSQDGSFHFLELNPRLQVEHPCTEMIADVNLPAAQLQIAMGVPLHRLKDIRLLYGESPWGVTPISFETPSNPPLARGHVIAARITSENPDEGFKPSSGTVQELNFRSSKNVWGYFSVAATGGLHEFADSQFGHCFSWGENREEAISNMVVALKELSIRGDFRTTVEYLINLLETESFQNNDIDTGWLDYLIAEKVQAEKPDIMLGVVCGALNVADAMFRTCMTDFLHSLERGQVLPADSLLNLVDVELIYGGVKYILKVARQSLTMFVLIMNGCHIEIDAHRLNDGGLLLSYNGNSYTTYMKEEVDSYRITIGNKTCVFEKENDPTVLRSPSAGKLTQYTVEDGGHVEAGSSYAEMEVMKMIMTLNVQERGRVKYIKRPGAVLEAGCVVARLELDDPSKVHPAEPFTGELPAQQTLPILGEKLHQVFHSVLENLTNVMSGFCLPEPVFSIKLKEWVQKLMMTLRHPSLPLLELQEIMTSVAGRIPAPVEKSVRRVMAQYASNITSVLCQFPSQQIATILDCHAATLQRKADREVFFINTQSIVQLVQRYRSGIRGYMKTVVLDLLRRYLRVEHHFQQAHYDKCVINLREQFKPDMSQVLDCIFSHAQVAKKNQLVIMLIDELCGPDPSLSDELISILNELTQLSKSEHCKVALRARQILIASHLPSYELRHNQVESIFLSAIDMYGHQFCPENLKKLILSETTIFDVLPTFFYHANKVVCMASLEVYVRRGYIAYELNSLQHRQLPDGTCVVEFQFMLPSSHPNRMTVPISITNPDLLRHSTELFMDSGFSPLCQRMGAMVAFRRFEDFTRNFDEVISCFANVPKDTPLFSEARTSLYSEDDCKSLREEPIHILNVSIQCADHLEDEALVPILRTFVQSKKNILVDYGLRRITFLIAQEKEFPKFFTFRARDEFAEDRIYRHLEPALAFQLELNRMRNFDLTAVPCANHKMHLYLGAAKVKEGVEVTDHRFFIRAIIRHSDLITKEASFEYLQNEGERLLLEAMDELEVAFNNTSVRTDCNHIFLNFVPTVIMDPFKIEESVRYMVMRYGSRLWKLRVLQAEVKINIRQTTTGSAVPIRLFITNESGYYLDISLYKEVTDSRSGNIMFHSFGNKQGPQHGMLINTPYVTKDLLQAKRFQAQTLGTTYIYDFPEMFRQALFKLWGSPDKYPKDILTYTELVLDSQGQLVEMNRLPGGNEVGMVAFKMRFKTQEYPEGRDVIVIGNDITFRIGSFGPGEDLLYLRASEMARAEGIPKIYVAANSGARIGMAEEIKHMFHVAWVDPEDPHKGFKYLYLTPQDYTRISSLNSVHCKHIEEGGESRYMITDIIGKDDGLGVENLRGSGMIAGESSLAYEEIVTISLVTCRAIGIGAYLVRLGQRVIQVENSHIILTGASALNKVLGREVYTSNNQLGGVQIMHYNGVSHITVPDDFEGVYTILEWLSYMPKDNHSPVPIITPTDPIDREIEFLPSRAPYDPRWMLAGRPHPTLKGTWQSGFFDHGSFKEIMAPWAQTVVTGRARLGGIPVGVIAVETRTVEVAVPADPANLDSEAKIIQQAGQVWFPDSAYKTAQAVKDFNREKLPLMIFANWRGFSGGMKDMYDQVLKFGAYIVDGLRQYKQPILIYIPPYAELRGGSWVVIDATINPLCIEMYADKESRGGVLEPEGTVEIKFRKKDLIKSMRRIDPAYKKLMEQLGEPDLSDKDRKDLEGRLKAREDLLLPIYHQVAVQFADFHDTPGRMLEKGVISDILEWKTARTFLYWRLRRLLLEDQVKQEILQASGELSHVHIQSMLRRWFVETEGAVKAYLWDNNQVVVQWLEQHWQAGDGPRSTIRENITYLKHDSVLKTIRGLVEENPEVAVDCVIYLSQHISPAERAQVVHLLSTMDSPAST

Regarding `COc1ccc(-c2cc(C(=O)NC[C@H]3CC[C@H](CNC(=O)OC(C)(C)C)CC3)ccn2)cn1` [Example 49, tert-Butyl {[trans-4-({[(6′-methoxy-2,3′-bipyridin-4-yl)carbonyl]amino}methyl)cyclohexyl]methyl}carbamate], the negative logarithm of the IC50 (pIC50) in test [1] was 5.12; in test [2] it was 5.01.
Take `CC(C)(C)OC(=O)NC[C@H]1CC[C@H](CNC(=O)c2ccnc(-c3ccc(CN)cc3)c2)CC1` [Example 52, tert-Butyl ({trans-4-[({2-[4-(aminomethyl)phenyl]isonicotinoyl}amino)methyl]cyclo-hexyl}methyl)carbamate]: the pIC50 is 5.08 in test [1] and 5.12 in test [2].
The matching figures for `CC(C)(C)OC(=O)NC[C@H]1CC[C@H](CNC(=O)c2cc(-c3ccc(C(N)=O)nc3)nc3ccccc23)CC1` [Example 5, tert-Butyl ({trans-4-[({[2-(6-carbamoylpyridin-3-yl)quinolin-4-yl]carbonyl}amino)-methyl]cyclohexyl}methyl)carbamate]: 5.91 and 6.59.
The matching figures for `CN(C)CCNc1ccc(-c2cc(C(=O)NC[C@H]3CC[C@H](CNC(=O)OC(C)(C)C)CC3)c3ccccc3n2)cn1` [Example 146, tert-Butyl({trans-4-[({[2-(6-{[2-(dimethylamino)ethyl]-amino}pyridin-3-yl)quinolin-4-yl]carbonyl}amino)-methyl]cyclohexyl}-methyl)carbamate]: 6.74 and 7.52.
The matching figures for `CC(C)c1ccc(S(=O)(=O)NC[C@H]2CC[C@H](CNC(=O)OC(C)(C)C)CC2)cc1` [Example 68, tert-Butyl {[trans-4-({[(4-isopropylphenyl)sulfonyl]amino}methyl)cyclohexyl]methyl}-carbamate]: under 4.70 and 5.58.
For `COC[C@@H](C)OC(=O)NC[C@H]1CC[C@H](CNC(=O)c2cc(-c3ccc(N4CCN(C)CC4)nc3)nc3ccccc23)CC1` (stereo in doubt) [Example 113, (1R)-2-Methoxy-1-methylethyl[(trans-4-{[({2-[6-(4-methylpiperazin-1-yl)pyridin-3-yl]quinolin-4-yl}carbonyl)amino]methyl}cyclohexyl)methyl]carbamate], the results for the pIC50 in test [1] and in test [2] were 5.11 and 6.03, respectively.
The matching figures for `CN1CCN(c2ccc(-c3cc(C(=O)NC[C@H]4CC[C@H](CNC(=O)O[C@H]5CCOC5)CC4)c4ccccc4n3)cn2)CC1` [Example 116, (3S)-Tetrahydrofuran-3-yl-[(trans-4-{[({2-[6-(4-methylpiperazin-1-yl)pyridin-3-yl]quinolin-4-yl}carbonyl)amino]methyl}cyclohexyl)methyl]carbamate]: 5.90 and 6.74.
As to `CCOC(=O)NC[C@H]1CC[C@H](CNC(=O)c2cc(-c3ccc(Cl)cc3)nc3ccccc23)CC1` [Example 32, Ethyl ({trans-4-[({[2-(4-chlorophenyl)quinolin-4-yl]carbonyl}amino)methyl]cyclo-hexyl}methyl)carbamate], the results for the pIC50 in test [1] and in test [2] were under 4.70 and 5.76, respectively.
In the case of `COc1cc(C(=O)NC[C@H]2CC[C@H](CNC(=O)OC(C)(C)C)CC2)cc(-c2ccc(CN)cc2)n1` [Example 36, tert-Butyl ({trans-4-[({2-[4-(aminomethyl)phenyl]-6-methoxyisonicotinoyl}-amino)methyl]cyclohexyl}methyl)carbamate], the pIC50 is 5.40 in test [1] and 5.80 in test [2].
On to `C[C@H](CO)Nc1ccc(-c2cc(C(=O)NC[C@H]3CC[C@H](CNC(=O)OC(C)(C)C)CC3)c3ccccc3n2)cn1` [Example 149, tert-Butyl({trans-4-[({[2-(6-{[(1R)-2-hydroxy-1-methylethyl]amino}-pyridin-3-yl)quinolin-4-yl]carbonyl}amino)-methyl]cyclohexyl}-methyl)carbamate], for which the results for the pIC50 in test [1] and in test [2] were 6.41 and 7.30, respectively.
In the case of `CN(C[C@H]1CC[C@H](CNC(=O)OC(C)(C)C)CC1)S(=O)(=O)c1ccc2ccccc2c1` [Example 88, tert-Butyl [(trans-4-{[methyl(2-naphthylsulfonyl)amino]methyl}cyclohexyl)methyl]-carbamate], the figures for the pIC50 in test [1] and in test [2] were under 4.70 and 5.61, respectively.
Taken in the same sequence, the figures for `CC(C)(C)OC(=O)NC[C@H]1CC[C@H](CNC(=O)c2cc(-c3cccc(CNS(C)(=O)=O)c3)nc3ccccc23)CC1` [Example 98, tert-Butyl ({trans-4-[({[2-(3-{[(methylsulfonyl)amino]methyl}phenyl)quinolin-4-yl]carbonyl}amino)methyl]cyclohexyl}methyl)carbamate] were 5.86 and 7.15.
The matching figures for `CC(C)(C)OC(=O)NC[C@H]1CC[C@H](CNC(=O)c2cc(-c3ccc(C(N)=O)cc3)nc3ccccc23)CC1` [Example 9, tert-butyl ({trans-4-[({[2-(4-carbamoylphenyl)quinolin-4-yl]carbonyl}amino)methyl]cyclohexyl}methyl)carbamate]: 6.60 and 7.40.
Taken in the same sequence, the figures for `CNS(=O)(=O)c1ccc(-c2cc(C(=O)NC[C@H]3CC[C@H](CNC(=O)O[C@H]4CCOC4)CC3)c3ccccc3n2)cc1` [Example 137, (3S)-Tetrahydrofuran-3-yl{[trans-4-({[(2-{4-[(methylamino)sulfonyl]phenyl}quinolin-4-yl)carbonyl]amino}methyl)cyclohexyl]methyl}-carbamate] were 5.47 and 6.17.
Consider `CN(C)S(=O)(=O)c1ccc(-c2cc(C(=O)NC[C@H]3CC[C@H](CNC(=O)O[C@H]4CCOC4)CC3)c3ccccc3n2)cc1` [Example 141, (3S)-Tetrahydrofuran-3-yl{[trans-4-({[(2-{4-[(dimethylamino)sulfonyl]phenyl}quinolin-4-yl)carbonyl]amino}-methyl)cyclohexyl]-methyl}carbamate], for which the figures for the pIC50 in test [1] and in test [2] were 5.41 and 6.04, respectively.
The matching figures for `CC(C)(C)OC(=O)NC[C@H]1CC[C@H](CNC(=O)c2cccc3ccccc23)CC1` [Example 96, tert-Butyl ({trans-4-[(1-naphthoylamino)methyl]cyclohexyl}methyl)carbamate]: under 4.70 and 5.44.
The matching figures for `COCCOC(=O)NC[C@H]1CC[C@H](CNC(=O)c2cc(-c3ccc(N4CCN(C)CC4)nc3)nc3ccccc23)CC1` [Example 120, 2-Methoxyethyl[(trans-4-{[({2-[6-(4-methylpiperazin-1-yl)pyridin-3-yl]quinolin-4-yl}carbonyl)amino]methyl}cyclohexyl)methyl]carbamate]: 5.37 and 5.88.
The matching figures for `CCOC(=O)NC[C@H]1CC[C@H](CNC(=O)c2cc(-c3ccc(SC)cc3)nc3ccccc23)CC1` [Example 29, Ethyl [(trans-4-{[({2-[4-(methylthio)phenyl]quinolin-4-yl}carbonyl)amino]methyl}-cyclohexyl)methyl]carbamate]: 5.39 and 5.90.
On to `CCOC(=O)NC[C@H]1CC[C@H](CNC(=O)c2cc(-c3ccc(OCC)cc3)nc3ccccc23)CC1` [Example 30, Ethyl ({trans-4-[({[2-(4-ethoxyphenyl)quinolin-4-yl]carbonyl}amino)methyl]-cyclohexyl}methyl)carbamate], for which the figures for the pIC50 in test [1] and in test [2] were under 4.70 and 5.89, respectively.
As for `CC(C)OC(=O)NC[C@H]1CC[C@H](CNC(=O)c2cc(-c3ccncc3)nc3ccccc23)CC1` [Example 57, Isopropyl {[trans-4-({[(2-pyridin-4-ylquinolin-4-yl)carbonyl]amino}methyl)cyclo-hexyl]methyl}carbamate], the pIC50 in test [1] was 5.72; in test [2] it was 6.10.
Turning to `CC(C)(C)OC(=O)NC[C@H]1CC[C@H](CNS(=O)(=O)c2cccc(-c3ccccc3)c2)CC1` [Example 63, tert-Butyl [(trans-4-{[(biphenyl-3-ylsulfonyl)amino]methyl}cyclohexyl)methyl]-carbamate], the values for the pIC50 in test [1] and in test [2] were 5.34 and 5.55, respectively.
The matching figures for `CN1CCN(CCCOc2cc(C(=O)NC[C@H]3CC[C@H](CNC(=O)OC(C)(C)C)CC3)c3ccccc3n2)CC1` [Example 180, tert-Butyl [(trans-4-{[({2-[3-(4-methylpiperazin-1-yl)propoxy]quinolin-4-yl}carbonyl)amino]methyl}cyclohexyl)methyl]carbamate]: 5.16 and 5.97.
The matching figures for `C=CCN(C[C@H]1CC[C@H](CNC(=O)OC(C)(C)C)CC1)S(=O)(=O)c1ccc2ccccc2c1` [Example 84, tert-Butyl [(trans-4-{[allyl(2-naphthylsulfonyl)amino]methyl}cyclohexyl)methyl]-carbamate]: under 4.70 and 5.34.
In the case of `CC(C)(C)OC(=O)NC[C@H]1CC[C@H](CNC(=O)c2cc(-c3ccc(N4CCCC4)nc3)nc3ccccc23)CC1` [Example 144, tert-Butyl({trans-4-[({[2-(6-pyrrolidin-1-ylpyridin-3-yl)quinolin-4-yl]carbonyl}amino)methyl]cyclohexyl}methyl)carbamate], the pIC50 in test [1] is 5.40; in test [2], 6.66.
